Test results from PubChem BioAssay AID248 (DTP/NCI, 2004).
Several values for one entry are separate records, joined by “and”; a condition that tells them apart may be missing. Equal values may be shown once. Inconclusive results and toxic doses are left out. Cut-off read from the data, not from the text of the source: active = T/C of 150% or more; inactive = T/C below 125%.

System: L1210 leukemia ip in BDF1 mice, survival T/C
Assay: NCI In Vivo Anticancer Drug Screen. Data for tumor model L1210 Leukemia (intraperitoneal) in B6D2F1 (BDF1) mice
Settings: endpoint: mean survival time, higher = longer survival
Outline: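 Each compound was tested against a transplantable tumor grown in mice. The endpoint was survival, with treated animals benchmarked against vehicle controls as a simple ratio.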

[1] = dose: 100.0 mg/kg/injection, schedule: Q04DX003 (ip), vehicle: saline with Tween-80
[2] = dose: 200.0 mg/kg/injection, schedule: Q04DX003 (ip), vehicle: saline with Tween-80
[3] = dose: 400.0 mg/kg/injection, schedule: Q04DX003 (ip), vehicle: saline with Tween-80
[4] = dose: 25.0 mg/kg/injection, schedule: Q04DX003 (ip), vehicle: Klucel (hydroxypropylcellulose) (HPC)
[5] = dose: 50.0 mg/kg/injection, schedule: Q04DX003 (ip), vehicle: Klucel (hydroxypropylcellulose) (HPC)
[6] = dose: 100.0 mg/kg/injection, schedule: Q04DX003 (ip), vehicle: Klucel (hydroxypropylcellulose) (HPC)
[7] = dose: 100.0 mg/kg/injection, schedule: Q01DX009 (ip), vehicle: Klucel (hydroxypropylcellulose) (HPC)
[8] = dose: 200.0 mg/kg/injection, schedule: Q01DX009 (ip), vehicle: Klucel (hydroxypropylcellulose) (HPC)
[9] = dose: 200.0 mg/kg/injection, schedule: Q04DX003 (ip), vehicle: Klucel (hydroxypropylcellulose) (HPC)
[10] = dose: 100.0 mg/kg/injection, schedule: Q01DX009 (ip), vehicle: saline with Tween-80
[11] = dose: 200.0 mg/kg/injection, schedule: Q01DX009 (ip), vehicle: saline with Tween-80
[12] = dose: 100.0 mg/kg/injection, schedule: Q01DX001 (ip), vehicle: saline
[13] = dose: 200.0 mg/kg/injection, schedule: Q01DX001 (ip), vehicle: saline
[14] = dose: 400.0 mg/kg/injection, schedule: Q01DX001 (ip), vehicle: saline
[15] = dose: 100.0 mg/kg/injection, schedule: Q04DX003 (ip), vehicle: saline
[16] = dose: 200.0 mg/kg/injection, schedule: Q04DX003 (ip), vehicle: saline
[17] = dose: 400.0 mg/kg/injection, schedule: Q04DX003 (ip), vehicle: saline

Measured: T/C

CC(=O)NC(C)C#N (stereo not drawn)
inactive: [1] 103 % of control | [2] 95 % of control | [3] 95 % of control

NC1CCC(CC2CCCCC2)CC1 (stereo not drawn)
inactive: dose: 25.0 mg/kg/injection, schedule: Q01DX009 (ip), vehicle: Klucel (hydroxypropylcellulose) (HPC) 96 % of control | [4] 95 % of control | dose: 50.0 mg/kg/injection, schedule: Q01DX009 (ip), vehicle: Klucel (hydroxypropylcellulose) (HPC) 98 % of control | [5] 100 % of control | [6] 91 % of control

CC(=O)OCC(=O)C1(O)C(C)CC2C3C=C(C)C4=Cc5c(cnn5-c5ccccc5)CC4(C)C3C(O)CC21C (stereo not drawn)
inactive: dose: 8.0 mg/kg/injection, schedule: Q01DX001 (sc), vehicle: steriod suspending solution 110 % of control | dose: 16.0 mg/kg/injection, schedule: Q01DX001 (sc), vehicle: steriod suspending solution 105 % of control | dose: 32.0 mg/kg/injection, schedule: Q01DX001 (sc), vehicle: steriod suspending solution 113 % of control | dose: 45.0 mg/kg/injection, schedule: Q01DX001 (sc), vehicle: steriod suspending solution 106 % of control | dose: 70.0 mg/kg/injection, schedule: Q01DX001 (sc), vehicle: steriod suspending solution 89 % of control | dose: 105.0 mg/kg/injection, schedule: Q01DX001 (sc), vehicle: steriod suspending solution 95 % of control | dose: 160.0 mg/kg/injection, schedule: Q01DX001 (sc), vehicle: steriod suspending solution 98 % of control | dose: 240.0 mg/kg/injection, schedule: Q01DX001 (sc), vehicle: steriod suspending solution 110 % of control | dose: 360.0 mg/kg/injection, schedule: Q01DX001 (sc), vehicle: steriod suspending solution 93 % of control

ClCCc1ccc(-n2cnc3c(Cl)ncnc32)cc1
inactive: dose: 50.0 mg/kg/injection, schedule: Q01DX001 (ip), vehicle: carboxymethylcellulose (CMC) 104 % of control | dose: 100.0 mg/kg/injection, schedule: Q01DX001 (ip), vehicle: carboxymethylcellulose (CMC) 106 % of control | dose: 200.0 mg/kg/injection, schedule: Q01DX001 (ip), vehicle: carboxymethylcellulose (CMC) 101 % of control | dose: 400.0 mg/kg/injection, schedule: Q01DX001 (ip), vehicle: carboxymethylcellulose (CMC) 98 % of control

COc1ccccc1NC(=O)Nc1ccccc1
inactive: [7] 94 % of control and 102 % of control | [6] 95 % of control | [8] 96 % of control and 97 % of control | [9] 93 % of control | dose: 400.0 mg/kg/injection, schedule: Q01DX009 (ip), vehicle: Klucel (hydroxypropylcellulose) (HPC) 96 % of control and 100 % of control | dose: 400.0 mg/kg/injection, schedule: Q04DX003 (ip), vehicle: Klucel (hydroxypropylcellulose) (HPC) 86 % of control

Cc1c(Cl)cccc1NC(=O)OC/C=C/c1ccccc1
inactive: dose: 100.0 mg/kg/injection, schedule: Q01DX001 (ip), vehicle: saline with Tween-80 93 % of control | [10] 101 % of control and 105 % of control | dose: 100.0 mg/kg/injection, schedule: Q04DX002 (ip), vehicle: saline with Tween-80 101 % of control and 114 % of control | [1] 91 % of control | dose: 200.0 mg/kg/injection, schedule: Q01DX001 (ip), vehicle: saline with Tween-80 93 % of control | [11] 94 % of control and 101 % of control | dose: 200.0 mg/kg/injection, schedule: Q04DX002 (ip), vehicle: saline with Tween-80 96 % of control and 106 % of control | [2] 93 % of control | dose: 400.0 mg/kg/injection, schedule: Q01DX001 (ip), vehicle: saline with Tween-80 88 % of control | dose: 400.0 mg/kg/injection, schedule: Q01DX009 (ip), vehicle: saline with Tween-80 94 % of control and 101 % of control | dose: 400.0 mg/kg/injection, schedule: Q04DX002 (ip), vehicle: saline with Tween-80 93 % of control and 97 % of control | [3] 98 % of control

O=C(O)COc1ccc(Br)cn1
inactive: dose: 100.0 mg/kg/injection, schedule: Q04DX002 (ip), vehicle: Klucel (hydroxypropylcellulose) (HPC) 104 % of control | dose: 200.0 mg/kg/injection, schedule: Q04DX002 (ip), vehicle: Klucel (hydroxypropylcellulose) (HPC) 101 % of control | dose: 400.0 mg/kg/injection, schedule: Q04DX002 (ip), vehicle: Klucel (hydroxypropylcellulose) (HPC) 104 % of control

Cc1ccc2ccccc2c1N(CC(=O)O)S(=O)(=O)c1ccccc1 (tested in a mixture with another compound)
inactive: dose: 100.0 mg/kg/injection, schedule: Q04DX003 (ip), vehicle: saline sonified 94 % of control | dose: 200.0 mg/kg/injection, schedule: Q04DX003 (ip), vehicle: saline sonified 94 % of control | dose: 400.0 mg/kg/injection, schedule: Q04DX003 (ip), vehicle: saline sonified 112 % of control

Cc1cc(C)[nH]c(=O)c1
inactive: [1] 109 % of control | [2] 102 % of control | [3] 98 % of control

Cc1ccc(S(=O)(=O)Oc2ccccc2NS(=O)(=O)c2ccccc2)cc1
inactive: [12] 101 % of control | dose: 100.0 mg/kg/injection, schedule: Q04DX003 (ip), vehicle: acetone 96 % of control | [13] 95 % of control | dose: 200.0 mg/kg/injection, schedule: Q04DX003 (ip), vehicle: acetone 92 % of control | [14] 95 % of control | dose: 400.0 mg/kg/injection, schedule: Q04DX003 (ip), vehicle: acetone 87 % of control

CC(C)(C)CC(=O)CC(C)(C)C
inactive: [12] 98 % of control | [13] 87 % of control | [14] 98 % of control

CC(C)C(O)C1(C)CC1 (stereo not drawn)
inactive: [10] 96 % of control | [15] 106 % of control | [11] 95 % of control | [16] 107 % of control | [17] 111 % of control

CC1CC(C)(C)NCCNC(C)CC(C)(C)NCCN1 (stereo not drawn)
inactive: dose: 12.5 mg/kg/injection, schedule: Q04DX002 (ip), vehicle: Klucel (hydroxypropylcellulose) (HPC) 97 % of control | dose: 25.0 mg/kg/injection, schedule: Q04DX002 (ip), vehicle: Klucel (hydroxypropylcellulose) (HPC) 94 % of control | dose: 50.0 mg/kg/injection, schedule: Q04DX002 (ip), vehicle: Klucel (hydroxypropylcellulose) (HPC) 94 % of control

CC(C)(C)c1cccc(C(C)(C)C)c1OC(=O)NS(=O)(=O)c1ccccc1
inactive: dose: 12.5 mg/kg/injection, schedule: Q01DX009 (ip), vehicle: acetone 98 % of control | dose: 25.0 mg/kg/injection, schedule: Q01DX009 (ip), vehicle: acetone 94 % of control | dose: 50.0 mg/kg/injection, schedule: Q01DX009 (ip), vehicle: acetone 91 % of control | dose: 75.0 mg/kg/injection, schedule: Q01DX009 (ip), vehicle: Klucel (hydroxypropylcellulose) (HPC) 96 % of control | dose: 115.0 mg/kg/injection, schedule: Q01DX009 (ip), vehicle: Klucel (hydroxypropylcellulose) (HPC) 98 % of control

CC1CNC(=O)CC(C)O1 (stereo not drawn)
inactive: [15] 108 % of control | [16] 110 % of control | [17] 104 % of control

CN(NC(=O)c1ccccc1)C(=O)c1ccccc1
inactive: dose: 12.5 mg/kg/injection, schedule: Q04DX003 (ip), vehicle: Klucel (hydroxypropylcellulose) (HPC) 106 % of control | [4] 104 % of control | [5] 103 % of control | [6] 108 % of control | dose: 130.0 mg/kg/injection, schedule: Q04DX003 (ip), vehicle: Klucel (hydroxypropylcellulose) (HPC) 100 % of control | [9] 103 % of control | dose: 300.0 mg/kg/injection, schedule: Q04DX003 (ip), vehicle: Klucel (hydroxypropylcellulose) (HPC) 113 % of control

CCCCCCCCCCCCCCCCCC(=O)Nc1ccc(OC(=O)NC)cc1
inactive: [7] 93 % of control | [8] 88 % of control

Cc1cc(C(=O)O)ccc1S(=O)(=O)F
inactive: dose: 25.0 mg/kg/injection, schedule: Q01DX009 (ip), vehicle: saline with Tween-80 96 % of control | dose: 50.0 mg/kg/injection, schedule: Q01DX009 (ip), vehicle: saline with Tween-80 102 % of control | [10] 92 % of control and 100 % of control

Cc1ccc(S(=O)(=O)Nc2ccc(C(=O)Cl)cc2)cc1
inactive: dose: 100.0 mg/kg/injection, schedule: Q04DX003 (ip), vehicle: gum acacia 95 % of control | dose: 200.0 mg/kg/injection, schedule: Q04DX003 (ip), vehicle: gum acacia 106 % of control | dose: 400.0 mg/kg/injection, schedule: Q04DX003 (ip), vehicle: gum acacia 90 % of control
